Measurements published in article PMC3765847, “A polybromodiphenyl ether from an Indonesian marine sponge Lamellodysideaherbacea and its chemical derivatives inhibit protein tyrosine phosphatase 1B, an important target for diabetes treatment” (Journal of Natural Medicines, 2012).

Key:
[1] = target: T1, protein tyrosine phosphatase 1B (PTP1B) (Homo sapiens, UniProt P18031); assay: PTP1B inhibitory assay (pNPP hydrolysis); assay type: biochemical; conditions: pNPP substrate, pH 6.0, 37 °C, 30 min
T1 sequence (P18031 1-435): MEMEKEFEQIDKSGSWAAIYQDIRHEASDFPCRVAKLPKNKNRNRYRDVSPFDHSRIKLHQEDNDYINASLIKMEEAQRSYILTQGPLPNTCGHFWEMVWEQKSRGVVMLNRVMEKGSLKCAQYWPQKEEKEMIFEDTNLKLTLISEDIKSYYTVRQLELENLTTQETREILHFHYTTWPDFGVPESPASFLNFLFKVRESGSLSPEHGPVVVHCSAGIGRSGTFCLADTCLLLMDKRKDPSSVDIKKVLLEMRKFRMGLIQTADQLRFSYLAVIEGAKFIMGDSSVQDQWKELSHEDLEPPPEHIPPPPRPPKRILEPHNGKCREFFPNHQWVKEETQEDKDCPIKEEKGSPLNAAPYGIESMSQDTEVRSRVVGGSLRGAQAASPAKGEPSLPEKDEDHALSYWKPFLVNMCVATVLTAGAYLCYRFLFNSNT
Protocol: Protein tyrosine phosphatase 1B (PTP1B) inhibitory activity was determined by measuring the rate of hydrolysis of a substrate, p-nitrophenyl phosphate (pNPP, Sigma, St. Louis, MO, USA) according to the published method with a slight modification. Briefly, PTP1B (100 μL of 0.5 μg/mL stock solution, Enzo Life Sciences, Farmingdale, NY, USA) in 50 mM citrate buffer (pH 6.0) containing 0.1 M NaCl, 1 mM dithiothreitol (DTT), and 1 mM N,N,N′,N′-ethylenediamine tetraacetate (EDTA) were added to each well of a 96-well plastic plate (Corning Inc., Corning, NY, USA). […] The reaction was initiated by the addition of pNPP (100 μL of 4.0 mM stock solution) in the citrate buffer, incubated at 37 °C for 30 min, and terminated with the addition of 10 μL of a stop solution (10 M NaOH). The optical density of each well was measured at 405 nm using an MTP-500 microplate reader (Corona Electric Co., Ltd., Ibaraki, Japan). PTP1B inhibitory activity (%) is defined as [1 − (ABSsample − ABSblank)/(ABScontrol − ABSblank)] × 100, where ABSblank is the absorbance of wells containing only the buffer and pNPP, ABScontrol is the absorbance of p-nitrophenol liberated by the enzyme in the assay system without a test sample, and ABSsample is that with a test sample. The assays were performed in two duplicate experiments for all test samples. Oleanolic acid (Tokyo Chemical Industry, Tokyo, Japan), a known phosphatase inhibitor [15], was used as a positive control.

in vitro [2] = assay type: cell-based; conditions: human
Protocol: Cytotoxic activity against Huh-7 cells was assessed by the MTT assay, a modification of our previously described method. Following the treatment of cells with test samples, 10 μL of MTT (5.0 mg/mL saline) was added to each well, the samples were incubated for 90 min at 37 °C and centrifuged (300g for 5 min), and the supernatant was aspirated off. The cells were lysed and solubilized by the addition of 100 μL of 0.040 N HCl in 2-propanol. The absorbance of each well was determined at 590 nm using an Inter-med model NJ-2300 Microplate Reader (Cosmo Bio Co., Ltd., Tokyo, Japan). Survival (%) was calculated relative to the control.

in vitro [3] = assay type: cell-based; conditions: human; remark: listed apart in the source
Protocol: (§1) HCT-15 and Jurkat cells were obtained from the Center for Biomedical Research, Institute of Development, Aging, and Cancer, Tohoku University (Miyagi, Japan). The cell lines were cultured in RPMI-1640 medium. The medium was supplemented with 10 % fetal bovine serum, 100 U/mL penicillin, and 100 μg/mL streptomycin. Exponentially growing cells, cultured in a humidified chamber at 37 °C containing 5.0 % CO2, were used for the experiments. Cytotoxic activity was evaluated using the colorimetric MTT assay. HCT-15 (1.0 × 10^4 cells in 100 μL) or Jurkat cells (2.0 × 10^4 cells in 100 μL) were added to each well of a 96-well plastic plate. A sample (1.0 μL in MeOH) was added to each well to make the final concentrations from 0 to 39–47 μM, and the cells were incubated for 48 h at 37 °C. MTT (10 μL of 5.5 mg/mL stock solution) and a cell lysate solution (90 μL, 40 % N,N-dimethylformamide, 20 % sodium dodecyl sulfate, 2.0 % CH3COOH and 0.030 % HCl) were added to each well, and the plate was shaken thoroughly by agitation at room temperature for overnight. The optical density of each well was measured at 570 nm using an MTP-500 microplate reader.

in vitro [4] = assay type: cell-based; conditions: human; remark: listed apart in the source
Protocol: as §1

Row | SMILES | IC50 [1] | IC50 (in vitro [2]) | IC50 at 48 h (in vitro [3]) | IC50 at 48 h (in vitro [4])
1 | COc1c(Br)cc(Br)cc1Oc1c(O)cc(Br)cc1Br [Compound 1, 2-(3′,5′-dibromo-2′-methoxyphenoxy)-3,5-dibromophenol] | 850 nM | 32000 nM | – | –
2 | COc1cc(Br)cc(Br)c1Oc1cc(Br)cc(Br)c1OC [Compound 2, 3,5-dibromo-2-(3′,5′-dibromo-2′-methoxyphenoxy)-1-methoxybenzene] | 1700 nM | 48000 nM | > 46000 nM | > 46000 nM
3 | COc1c(Br)cc(Br)cc1Oc1c(Br)cc(Br)cc1OC(C)=O [Compound 3, 3,5-dibromo-2-(3′,5′-dibromo-2′-methoxyphenoxy)phenyl ethanoate] | 620 nM | – | – | –
4 | CCCC(=O)Oc1cc(Br)cc(Br)c1Oc1cc(Br)cc(Br)c1OC [Compound 4, 3,5-Dibromo-2-(3′,5′-dibromo-2′-methoxyphenoxy)phenyl butanoate] | 680 nM | – | – | –
5 | CCCCCC(=O)Oc1cc(Br)cc(Br)c1Oc1cc(Br)cc(Br)c1OC [Compound 5, 3,5-Dibromo-2-(3′,5′-dibromo-2′-methoxyphenoxy)phenyl hexanoate] | 690 nM | – | – | –
6 | COc1c(Br)cc(Br)cc1Oc1c(Br)cc(Br)cc1OC(=O)c1ccccc1 [Compound 6, 3,5-Dibromo-2-(3′,5′-dibromo-2′-methoxyphenoxy)phenyl benzoate] | 970 nM | – | – | –
